Assay results: patent US20130316963A1, “INNATE DEFENCE REGULATORY PEPTIDE COMPOSITIONS FOR TREATMENT OF ARTHRITIS” (UNIVERSITY OF MANITOBA, priority 2010, published 2013)

What was measured:
human FLS cells [1] = assay: MMP-3 production in tissue culture supernatants of cytokine-stimulated human FLS cells (ELISA); assay type: cell-based; conditions: 24 hr
Method: Synovial tissues were obtained from patients with OA in accordance to a protocol by the Institutional Review Board at the University of Manitoba. FLS cells were isolated from the synovial tissues following the procedure taught by Kammouni et al. (2007, Regulation of apoptosis in fibroblast-like synoviocytes by the hypoxia-induced Bcl-2 family member Bcl-2/adenovirus E1B 19-kd protein-interacting protein 3. Arthritis Rheum. 56:2854-2863). Briefly, the tissues were digested with 1 mg/ml collagenase and 0.05 mg/ml hyaluronidase (both obtained from Sigma-Aldrich Co., Oakville, ON, Canada) in Hanks' balanced salt solution (Gibco; Invitrogen Canada Inc., Burlington, ON, Canada) for 1-2 hours at 37° C. Cells were washed and cultured in DMEM media (Gibco) supplemented with sodium pyruvate and non-essential amino acids (referred to as complete DMEM media henceforth), containing 10% (v/v) fetal bovine serum (FBS) in a humidified incubator at 37° C. and 10% CO2. Isolated human FLS cells (ex-vivo) were seeded at 2×10^4 cells/ml, either 0.5 ml per well in 48-well tissue culture plate, or 3 ml per well in 6-well tissue culture plate as required and cultured in complete DMEM media containing 10% (v/v) FBS overnight. The following day the culture media was changed to complete DMEM containing 1% (v/v) FBS before the addition of the various stimulants. The FLS cells were not used beyond passage five. […] Cellular cytotoxicity was evaluated by monitoring the release of lactate dehydrogenase (LDH) employing a colorimetric detection kit (Roche Diagnostics, Laval, QC, Canada).
Tissue culture supernatants were harvested after stimulation of human FLS cells with various cytokines (as indicated) with and without IDR peptides after 24 hr. […] Production of MMP-3 in the tissue culture supernatants was monitored using Quantikine® human MMP-3 (total) ELISA kit (Quantikine is a registered trademark of R&D Systems, Inc. Minneapolis, Minn., USA) as per the manufacturer's instructions. Production of pro-inflammatory cytokines IL-1β, IL-6, IL-10, TNF, IL-12p70 and chemokines IL-8, RANTES, MIG, MCP-1, IP-10 in the tissue culture supernatants was determined using preconfigured multiplex BD Cytometric Bead Array (CBA) human inflammation and chemokine kits respectively, employing the FACS Calibur flow cytometer (BD Biosciences, Mississauga, ON, Canada) as per the manufacture's instructions. The concentration of the cytokines or chemokines in the tissue culture supernatants was evaluated by establishing a standard curve with serial dilutions of the recombinant human cytokines or chemokines as required. […]

human FLS cells [2] = assay: Cellular cytotoxicity by release of lactate dehydrogenase (LDH); assay type: cell-based; conditions: presence and absence of cytokine stimulation, 24 hr; IDR-1002 100 μg/ml, IDR-1 200 μg/ml; data not shown
Method: Synovial tissues were obtained from patients with OA in accordance to a protocol by the Institutional Review Board at the University of Manitoba. FLS cells were isolated from the synovial tissues following the procedure taught by Kammouni et al. (2007, Regulation of apoptosis in fibroblast-like synoviocytes by the hypoxia-induced Bcl-2 family member Bcl-2/adenovirus E1B 19-kd protein-interacting protein 3. Arthritis Rheum. 56:2854-2863). […] Cellular cytotoxicity was evaluated by monitoring the release of lactate dehydrogenase (LDH) employing a colorimetric detection kit (Roche Diagnostics, Laval, QC, Canada).
Inflammatory cytokines TNF-α and IL-1β stimulate cells types such as FLS, chondrocytes and macrophages resulting in the production of MMP-3 in arthritic joints. […] In this study we evaluated the impact of IDR peptides on TNF-α and IL-1β-induced MMP-3 production. […] The peptides were not cytotoxic to the FLS cells in the presence and absence of cytokine stimulation, as determined by monitoring the tissue culture supernatants for the release of LDH after 24 hr of stimulation (data not shown). Tissue culture supernatants were monitored after 24 hr of stimulation for MMP-3 production by ELISA. […]

**Q.** Which results are given for VQRWLIVWRIRK (IDR-1002 peptide)?
**A.** suppression of IL-1β-induced MMP-3 (human FLS cells [1]; IDR-1002 100 μg/ml for 45 min prior to IL-1β 10 ng/ml, FIG. 2A): 80%; suppression of IL-1β-induced MMP-3 production (human FLS cells [1]; IL-1β 10 ng/ml, peptide added at time of stimulation, IDR-1002 100 μg/ml, IDR-1 200 μg/ml, FIG. 1A): 70±8%; suppression of MMP-3 production induced by cytomix (TNF-α+IL-1β) (human FLS cells [1]; TNF-α+IL-1β 10 ng/ml each, IDR-1002 100 μg/ml, FIG. 1C): 56±10%; MMP-3 production induced by peptide by itself (human FLS cells [1]; no cytokine, vs un-stimulated control FLS cells, IDR-1002 100 μg/ml): did not induce MMP-3 production above the background amount; cytotoxicity to FLS cells (release of LDH) (human FLS cells [2]): not cytotoxic
